The values that follow come from patent publication US20160243023A1, “Novel Skin Remodeling Strategy” (ELC MANAGEMENT LLC, priority 2015, published 2016).

The test system of test [1] is human dermal fibroblasts (HDFs). The experiment in a line: Glycated collagen phagocytosis by HDFs (Phagocytosis Index). The class given is cell-based. To be noted: beads pre-treated overnight with methylglyoxal; 3 hours incubation with HDFs. As for the experimental part: • 1. On day 1, HDFs were plated in 24 well plates. • 2. On day 2, HDFs, after reaching confluence, were maintained for 48 hours under starvation conditions. • 3. On day 4, HDFs were incubated for 3 hours with collagen-coated microspheres (2×10^6 beads) as control or with collagen-coated microspheres (2×10^6 beads) that had been pre-treated overnight with glycation inducer, methylglyoxal. HDFs were then washed with PBS to remove unbound and loosely bound beads. • 4. Cell viability was measured using Presto Blue reagent; phagocytosis was measured by the determination of the fluorescence reading of internalized beads, using the procedure described above in Example 1. Results, shown in FIG. 11, are expressed as Phagocytosis Index (i.e., the ratio of the phagocytosis fluorescent signal divided by the viability signal).

For test [2] the test system is unchanged. The experiment in a line: TGFβ1-induced collagen synthesis in HDF after pretreatment with inducers of collagen phagocytosis (PIP EIA). The class given is cell-based. To be noted: TGFβ1 used alone at 0.25 ng/ml, 72 hours. The procedure:
• 1. On day 1, HDFs were plated in 96 well plates. • 2. On day 2, HDFs, after reaching confluence, were treated with medium (control) or with actives (test materials previously found by the inventors to be phagocytosis enhancers*; data not shown) under starvation conditions for 48 hours (step 1). • 3. On day 4, the actives were removed and the cells were treated with medium or with a collagen inducer, 0.25 ng/ml TGFβ1 in medium, for 72 hours (step 2). • 4. On day 7, medium was collected and analyzed for collagen release using a PIP EIA. The amount of PIP (pro-collagen ng/ml medium) is quantitated by measuring the absorbance using an EIA plate reader. Accurate sample concentrations of PIP can be determined by comparing the specific absorbances to a standard curve. Cell viability also was assessed using a standard 3-(4,5-dimethylthiazol-2-yl)-2,5-diphenyltetrazoliumbromide (MTT) assay. The assay involves the conversion of the water soluble MTT, a yellow tetrazole, to an insoluble purple formazan in living cells. The formazan is then solubilized and the concentration determined by measuring the absorbance at a wavelength of from about 500-600 nm using a spectrophotometer. […]

`CC(=O)C=O` [methylglyoxal]: the “uptake by HDFs of pre-treated collagen-coated beads versus beads coated with unmodified collagen (Phagocytosis Index)” value in test [1] is “substantially the same rate”.
“TGFβ1: Transforming Growth Factor Beta 1, collagen inducer”: the “increase in collagen synthesis compared with the non-treated control” value in test [2] is on record as 30%.
